Like-named read-outs stand apart in the source and are kept apart here.
Experiments:
GKRP-WT [1] = molecular target: T1, GKRP-WT (Homo sapiens, UniProt Q14397); assay: Ligand binding to free GKRP-WT measured by TF of GKRP; conditions: ligand alone
T1 construct: FLAG; made in house; host or cells: Escherichia coli
T1 sequence (Q14397 1-625): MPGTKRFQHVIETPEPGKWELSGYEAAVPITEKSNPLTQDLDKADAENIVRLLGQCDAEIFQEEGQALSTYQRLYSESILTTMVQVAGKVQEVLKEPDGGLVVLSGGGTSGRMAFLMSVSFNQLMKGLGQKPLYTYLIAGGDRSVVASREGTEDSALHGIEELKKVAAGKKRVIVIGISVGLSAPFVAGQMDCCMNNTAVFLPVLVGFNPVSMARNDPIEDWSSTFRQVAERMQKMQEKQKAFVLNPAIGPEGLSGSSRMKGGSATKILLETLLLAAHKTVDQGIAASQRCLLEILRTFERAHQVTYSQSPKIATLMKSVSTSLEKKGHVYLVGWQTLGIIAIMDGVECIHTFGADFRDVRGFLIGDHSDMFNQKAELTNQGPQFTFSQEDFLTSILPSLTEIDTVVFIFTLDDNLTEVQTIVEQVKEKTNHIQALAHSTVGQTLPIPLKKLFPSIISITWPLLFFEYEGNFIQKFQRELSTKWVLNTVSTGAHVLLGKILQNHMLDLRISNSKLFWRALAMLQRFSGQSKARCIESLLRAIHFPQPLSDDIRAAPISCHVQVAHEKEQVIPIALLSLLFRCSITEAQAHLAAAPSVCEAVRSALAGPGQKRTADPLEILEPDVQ

GKRP-WT [2] = molecular target: T2, GKRP-WT (Homo sapiens, UniProt P35557+Q14397, W167F/W257F/W99R); assay: Titration of GKRP-WT with GK-W99R/W167F/W257F (GK–GKRP complex assembly) by TF; format: binding; conditions: saturating levels of F6P;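 also: tryptophan fluorescence of GKRP titrated with GK, excitation 295 nm, emission read at 340 nm, phosphate buffer pH 7.2, Hill equation fitting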
T2 construct: FLAG; GST (cleaved yes); made in house; host or cells: Escherichia coli
T2 sequence (Q14397 1-625): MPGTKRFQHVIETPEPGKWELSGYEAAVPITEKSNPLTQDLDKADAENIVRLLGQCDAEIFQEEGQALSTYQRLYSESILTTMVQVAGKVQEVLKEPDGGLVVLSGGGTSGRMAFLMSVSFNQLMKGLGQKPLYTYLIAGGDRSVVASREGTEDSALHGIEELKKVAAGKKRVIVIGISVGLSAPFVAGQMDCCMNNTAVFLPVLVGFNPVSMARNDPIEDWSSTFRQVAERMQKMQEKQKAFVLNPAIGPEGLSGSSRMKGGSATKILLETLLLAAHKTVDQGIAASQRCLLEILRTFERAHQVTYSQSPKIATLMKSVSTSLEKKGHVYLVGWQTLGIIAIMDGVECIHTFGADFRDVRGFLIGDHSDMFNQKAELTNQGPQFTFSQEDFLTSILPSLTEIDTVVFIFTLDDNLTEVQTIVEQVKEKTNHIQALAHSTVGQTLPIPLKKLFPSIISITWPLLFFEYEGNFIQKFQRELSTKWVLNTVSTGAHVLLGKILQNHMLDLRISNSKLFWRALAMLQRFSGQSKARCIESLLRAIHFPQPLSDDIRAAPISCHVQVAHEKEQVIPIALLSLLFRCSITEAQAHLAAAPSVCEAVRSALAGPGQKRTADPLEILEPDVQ
T2 sequence (P35557 1-465 W99R/W167F/W257F): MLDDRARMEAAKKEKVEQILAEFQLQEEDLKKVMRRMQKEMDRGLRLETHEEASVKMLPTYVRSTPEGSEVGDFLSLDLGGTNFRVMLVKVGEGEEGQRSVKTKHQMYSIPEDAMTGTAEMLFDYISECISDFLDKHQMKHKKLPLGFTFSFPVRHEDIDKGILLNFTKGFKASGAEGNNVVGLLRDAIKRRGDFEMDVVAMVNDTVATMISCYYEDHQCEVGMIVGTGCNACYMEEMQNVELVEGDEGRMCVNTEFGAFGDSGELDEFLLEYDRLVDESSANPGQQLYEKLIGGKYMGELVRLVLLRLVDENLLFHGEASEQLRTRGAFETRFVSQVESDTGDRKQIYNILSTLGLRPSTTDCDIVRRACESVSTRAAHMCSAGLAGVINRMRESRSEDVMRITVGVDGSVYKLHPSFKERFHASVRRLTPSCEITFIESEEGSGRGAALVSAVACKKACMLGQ

GKRP-P446L [3] = molecular target: T3, GKRP-P446L (Homo sapiens, UniProt P35557+Q14397, P446L/W167F/W257F/W99R); assay: Titration of GKRP-P446L with GK-W99R/W167F/W257F (GK–GKRP complex assembly) by TF; format: binding; conditions: saturating levels of F6P
T3 construct: FLAG; GST (cleaved yes); made in house; host or cells: Escherichia coli
T3 sequence (Q14397 1-625 P446L): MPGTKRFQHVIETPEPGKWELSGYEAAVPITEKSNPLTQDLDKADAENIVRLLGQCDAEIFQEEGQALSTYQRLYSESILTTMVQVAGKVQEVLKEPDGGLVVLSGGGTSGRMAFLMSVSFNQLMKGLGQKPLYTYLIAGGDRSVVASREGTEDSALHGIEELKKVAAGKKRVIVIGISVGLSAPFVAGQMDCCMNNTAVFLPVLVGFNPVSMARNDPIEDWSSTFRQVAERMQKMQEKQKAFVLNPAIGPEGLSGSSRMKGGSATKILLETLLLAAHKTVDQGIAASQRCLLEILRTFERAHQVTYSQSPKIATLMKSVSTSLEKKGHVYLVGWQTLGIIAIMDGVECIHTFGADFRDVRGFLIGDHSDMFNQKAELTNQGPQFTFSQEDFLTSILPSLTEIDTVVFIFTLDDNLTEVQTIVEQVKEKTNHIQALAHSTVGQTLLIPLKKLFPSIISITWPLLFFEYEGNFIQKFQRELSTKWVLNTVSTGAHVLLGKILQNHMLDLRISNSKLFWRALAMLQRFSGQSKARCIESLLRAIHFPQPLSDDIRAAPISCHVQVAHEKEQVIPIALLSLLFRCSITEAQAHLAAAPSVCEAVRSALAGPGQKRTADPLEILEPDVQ
T3 sequence (P35557 1-465 W99R/W167F/W257F): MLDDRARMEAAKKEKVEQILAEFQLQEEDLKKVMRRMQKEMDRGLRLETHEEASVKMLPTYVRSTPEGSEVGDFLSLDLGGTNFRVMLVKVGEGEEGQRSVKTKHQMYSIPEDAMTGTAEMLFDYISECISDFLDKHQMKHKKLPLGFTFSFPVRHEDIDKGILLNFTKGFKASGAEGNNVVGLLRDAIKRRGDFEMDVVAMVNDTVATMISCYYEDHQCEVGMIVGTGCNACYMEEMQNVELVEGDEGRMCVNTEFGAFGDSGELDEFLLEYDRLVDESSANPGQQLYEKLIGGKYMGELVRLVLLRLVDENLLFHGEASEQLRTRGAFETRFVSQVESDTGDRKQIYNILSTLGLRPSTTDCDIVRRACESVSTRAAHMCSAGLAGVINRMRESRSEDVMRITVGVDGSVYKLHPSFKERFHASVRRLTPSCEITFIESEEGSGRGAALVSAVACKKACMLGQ
Protocol: Spectra were measured with a Fluorolog-3-21 Jobin-Yvon Spex Instrument SA equipped with a 450 W Xenon lamp for excitation and a cooled R2658P Hamamatsu photomultiplier tube for detection. For all measurements, 90° geometry was employed and 295 nm excitation wavelengths were used to observe fluorescence emission in the 300–500 nm range. For TF, spectra slit width was set to provide a bandpath of 3 nm for excitation and 3 nm for emission. Spectra were corrected for instrumental response using Spex instrument software. A thermostatically controlled cell holder maintained sample temperature at 20°C. A thermocoupler was used to measure sample temperature. The buffer used contained 20 mM phosphate, 50 mM KCl, 1 mM EDTA and 1 mM DTT (pH 7.2).
Fluorescence data were obtained via the stepwise addition of the appropriate amount of non-fluorescent GK-W99R/W167F/W257F to GKRP in a fluorescence cuvette. […] The change in GKRP protein fluorescence during titration was also measured using time-dependent scans. A manual procedure was used such that a typical titration with 10–12 additions required 20–25 min to perform. The same buffer as described above was routinely used unless stated otherwise. The bandpath was 0.5 nm at 295 nm for excitation and 12 nm at 340 nm for emission. […] For some graphical presentations the linear form of the Hill equation was used: log[F/(Fsat−F)]=H log x−H log KD [46].

GKRP-P446L [4] = molecular target: T4, GKRP-P446L (Homo sapiens, UniProt Q14397, P446L); assay: Ligand binding to free GKRP-P446L measured by TF of GKRP; conditions: ligand alone
T4 construct: FLAG; made in house; host or cells: Escherichia coli
T4 sequence (Q14397 1-625 P446L): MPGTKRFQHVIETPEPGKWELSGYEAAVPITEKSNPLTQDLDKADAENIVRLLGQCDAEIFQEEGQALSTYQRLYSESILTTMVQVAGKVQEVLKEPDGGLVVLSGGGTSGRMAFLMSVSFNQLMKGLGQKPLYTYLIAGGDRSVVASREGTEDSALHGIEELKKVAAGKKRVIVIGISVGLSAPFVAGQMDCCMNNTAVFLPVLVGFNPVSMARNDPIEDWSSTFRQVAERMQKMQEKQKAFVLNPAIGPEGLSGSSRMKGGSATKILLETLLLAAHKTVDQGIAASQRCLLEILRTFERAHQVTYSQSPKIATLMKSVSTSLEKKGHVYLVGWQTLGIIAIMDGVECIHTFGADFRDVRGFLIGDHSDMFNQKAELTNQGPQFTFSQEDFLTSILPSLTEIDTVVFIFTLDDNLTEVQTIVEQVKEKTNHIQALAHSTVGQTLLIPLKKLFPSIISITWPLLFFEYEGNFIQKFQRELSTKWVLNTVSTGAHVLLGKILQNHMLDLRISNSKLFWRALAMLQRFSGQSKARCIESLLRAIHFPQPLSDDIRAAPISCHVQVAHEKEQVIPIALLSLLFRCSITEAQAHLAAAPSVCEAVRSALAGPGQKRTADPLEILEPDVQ

GK-WT = molecular target: T5, GK-WT (Homo sapiens, UniProt P35557); design: method as in ref 18 (a number printed in a supplementary file, which may have a reference list of its own: not looked up in the article's list); conditions: read-out: Kd for MH, cited from earlier work
T5 construct: GST (cleaved yes); made in house; host or cells: Escherichia coli
T5 sequence (P35557 1-465): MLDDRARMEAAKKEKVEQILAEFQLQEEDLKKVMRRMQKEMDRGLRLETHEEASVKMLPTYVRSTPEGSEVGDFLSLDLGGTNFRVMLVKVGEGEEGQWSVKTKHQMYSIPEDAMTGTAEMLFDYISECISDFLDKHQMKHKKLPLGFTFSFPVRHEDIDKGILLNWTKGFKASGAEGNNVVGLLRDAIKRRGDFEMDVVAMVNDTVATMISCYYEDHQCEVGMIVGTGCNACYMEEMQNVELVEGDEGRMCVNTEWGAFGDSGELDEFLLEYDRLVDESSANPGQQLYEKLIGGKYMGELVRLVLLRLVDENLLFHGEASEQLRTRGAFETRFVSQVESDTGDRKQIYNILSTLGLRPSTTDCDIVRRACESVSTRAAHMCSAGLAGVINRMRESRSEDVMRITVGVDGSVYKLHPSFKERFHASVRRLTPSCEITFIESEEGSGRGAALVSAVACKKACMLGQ

[5] = Structural stability from urea denaturation curves (TF); format: physicochemical, human; conditions: buffer pH 7.2, 20°C; ±0.05

Q: What does the source list for `O=C(CO)[C@@H](O)[C@H](O)[C@H](O)COP(=O)([O-])[O-].[Na+].[Na+]` [F6P, D-fructose 6-phosphate disodium salt]?
A: H (Hill number) (GKRP-WT [1]; 0.3 μM GKRP-WT, 20°C): 3.6; ΔF (relative fluorescence change at 340 nm) (GKRP-WT [1]; 0.3 μM GKRP-WT, 20°C): 0.04; Kd (GKRP-WT [1]; 0.3 μM GKRP-WT, 20°C, read-out: S0.5): 278 µM; effect on the TF signal of GKRP-WT (GKRP-WT [1]): increase; effect on the binding of GKRP-WT to GK (GKRP-WT [2]): no significant effect; effect on the binding of GKRP-P446L to GK (GKRP-P446L [3]): increased the affinity of GKRP-P446L for GK; H (Hill number) (GKRP-P446L [4]; 0.3 μM GKRP-P446L, 20°C): 2.94; ΔF (relative fluorescence change at 340 nm) (GKRP-P446L [4]; 0.3 μM GKRP-P446L, 20°C): 0.07; Kd (GKRP-P446L [4]; 0.3 μM GKRP-P446L, 20°C, read-out: S0.5): 242 µM; effect on the TF signal of GKRP-P446L (GKRP-P446L [4]): increase

Q: With `O=C(CO)[C@@H](O)[C@@H](O)[C@H](O)[C@H](O)CO` [MH, D-mannoheptulose] as the molecule, how does the Kd (GK-WT; in the presence of GKA (20 μM)) read?
A: The Kd was 1000 µM.

Q: What about the Kd (GK-WT; without GKA) of the same molecule?
A: Its Kd is 17000 µM.

B1: GKRP-WT: recombinant human wild-type GK regulatory protein (protein)
chain: MPGTKRFQHVIETPEPGKWELSGYEAAVPITEKSNPLTQDLDKADAENIVRLLGQCDAEIFQEEGQALSTYQRLYSESILTTMVQVAGKVQEVLKEPDGGLVVLSGGGTSGRMAFLMSVSFNQLMKGLGQKPLYTYLIAGGDRSVVASREGTEDSALHGIEELKKVAAGKKRVIVIGISVGLSAPFVAGQMDCCMNNTAVFLPVLVGFNPVSMARNDPIEDWSSTFRQVAERMQKMQEKQKAFVLNPAIGPEGLSGSSRMKGGSATKILLETLLLAAHKTVDQGIAASQRCLLEILRTFERAHQVTYSQSPKIATLMKSVSTSLEKKGHVYLVGWQTLGIIAIMDGVECIHTFGADFRDVRGFLIGDHSDMFNQKAELTNQGPQFTFSQEDFLTSILPSLTEIDTVVFIFTLDDNLTEVQTIVEQVKEKTNHIQALAHSTVGQTLPIPLKKLFPSIISITWPLLFFEYEGNFIQKFQRELSTKWVLNTVSTGAHVLLGKILQNHMLDLRISNSKLFWRALAMLQRFSGQSKARCIESLLRAIHFPQPLSDDIRAAPISCHVQVAHEKEQVIPIALLSLLFRCSITEAQAHLAAAPSVCEAVRSALAGPGQKRTADPLEILEPDVQ
modifications: left off: FLAG, end not stated, state not stated
notes: recombinant human wild-type GK regulatory protein
Q: For B1, which “ΔG(H2O) from urea denaturation curves” value [5] is on record?
A: The value was 6.53 kJ/mol.
